Laboratory results reported in article PMC8288134, “Synthesis, potential antitumor activity, cell cycle analysis, and multitarget mechanisms of novel hydrazones incorporating a 4-methylsulfonylbenzene scaffold: a molecular docking study” (Journal of Enzyme Inhibition and Medicinal Chemistry, 2021).
Read-outs that look alike come from different tables or passages of the source.

What was measured:
[1] = system: MDA-MB-435; design: method as in https://dtp.cancer.gov/dtpstandard/dwindex/index.jsp; details: reference drugs, ref https://dtp.cancer.gov/dtpstandard/dwindex/index.jsp; cited from earlier work
[2] = system: breast cancer tumour cell lines; details: cited from earlier work; for GI50: read-out: GI50 (subpanel average), reference drugs, ref https://dtp.cancer.gov/dtpstandard/dwindex/index.jsp; for TGI (subpanel average): reference drugs, ref https://dtp.cancer.gov/dtpstandard/dwindex/index.jsp
[3] = system: OVCAR-8; design: method as in https://dtp.cancer.gov/dtpstandard/dwindex/index.jsp; details: reference drugs, ref https://dtp.cancer.gov/dtpstandard/dwindex/index.jsp; cited from earlier work
[4] = system: KM12; design: method as in https://dtp.cancer.gov/dtpstandard/dwindex/index.jsp; details: reference drugs, ref https://dtp.cancer.gov/dtpstandard/dwindex/index.jsp; cited from earlier work
[5] = system: NSC lung cancer tumour cell lines; details: cited from earlier work; for GI50: read-out: GI50 (subpanel average), reference drugs, ref https://dtp.cancer.gov/dtpstandard/dwindex/index.jsp; for CC50: read-out: LC50 (subpanel average), reference drugs, ref https://dtp.cancer.gov/dtpstandard/dwindex/index.jsp; for TGI (subpanel average): reference drugs, ref https://dtp.cancer.gov/dtpstandard/dwindex/index.jsp
[6] = system: LOX IMVI; design: method as in https://dtp.cancer.gov/dtpstandard/dwindex/index.jsp; details: reference drugs, ref https://dtp.cancer.gov/dtpstandard/dwindex/index.jsp; cited from earlier work
[7] = system: DU-145; design: method as in https://dtp.cancer.gov/dtpstandard/dwindex/index.jsp; details: reference drugs, ref https://dtp.cancer.gov/dtpstandard/dwindex/index.jsp; cited from earlier work
[8] = system: IGROV1; design: method as in https://dtp.cancer.gov/dtpstandard/dwindex/index.jsp; details: reference drugs, ref https://dtp.cancer.gov/dtpstandard/dwindex/index.jsp; cited from earlier work
[9] = system: M14; design: method as in https://dtp.cancer.gov/dtpstandard/dwindex/index.jsp; details: reference drugs, ref https://dtp.cancer.gov/dtpstandard/dwindex/index.jsp; cited from earlier work
[10] = system: BT-549; design: method as in https://dtp.cancer.gov/dtpstandard/dwindex/index.jsp; details: reference drugs, ref https://dtp.cancer.gov/dtpstandard/dwindex/index.jsp; cited from earlier work
[11] = system: EKVX; design: method as in https://dtp.cancer.gov/dtpstandard/dwindex/index.jsp; details: reference drugs, ref https://dtp.cancer.gov/dtpstandard/dwindex/index.jsp; cited from earlier work
[12] = system: NCI-H23; design: method as in https://dtp.cancer.gov/dtpstandard/dwindex/index.jsp; details: reference drugs, ref https://dtp.cancer.gov/dtpstandard/dwindex/index.jsp; cited from earlier work
[13] = system: SNB-19; design: method as in https://dtp.cancer.gov/dtpstandard/dwindex/index.jsp; details: reference drugs, ref https://dtp.cancer.gov/dtpstandard/dwindex/index.jsp; cited from earlier work
[14] = system: SK-MEL-2; design: method as in https://dtp.cancer.gov/dtpstandard/dwindex/index.jsp; details: reference drugs, ref https://dtp.cancer.gov/dtpstandard/dwindex/index.jsp; cited from earlier work
[15] = system: MALME-3M; design: method as in https://dtp.cancer.gov/dtpstandard/dwindex/index.jsp; details: reference drugs, ref https://dtp.cancer.gov/dtpstandard/dwindex/index.jsp; cited from earlier work
[16] = system: RXF 393; assay: NCI antitumor screen (SRB); format: cell-based; details: Homo sapiens, one dose 10 µM, read-out: Growth inhibition percentage (GI%)
[17] = system: HCT-116; assay: NCI antitumor screen (SRB); format: cell-based; details: Homo sapiens, read-out: Growth inhibition percentage (GI%)
[18] = system: SF-268; assay: NCI antitumor screen (SRB); format: cell-based; details: Homo sapiens, one dose 10 µM, read-out: Growth inhibition percentage (GI%)
[19] = system: PRMI-8226; assay: NCI antitumor screen (SRB); format: cell-based; details: Homo sapiens, one dose 10 µM, read-out: Growth inhibition percentage (GI%)
[20] = system: ACHN; assay: NCI antitumor screen (SRB); format: cell-based; details: Homo sapiens, one dose 10 µM, read-out: Growth inhibition percentage (GI%)
[21] = system: HCT-15; assay: NCI antitumor screen (SRB); format: cell-based; details: Homo sapiens, one dose 10 µM, read-out: Growth inhibition percentage (GI%)
[22] = system: UACC-62; assay: NCI antitumor screen (SRB); format: cell-based; details: Homo sapiens, one dose 10 µM, read-out: Growth inhibition percentage (GI%)
[23] = system: HS 578 T; assay: NCI antitumor screen (SRB); format: cell-based; details: Homo sapiens, one dose 10 µM, read-out: Growth inhibition percentage (GI%)
[24] = system: SN12C; assay: NCI antitumor screen (SRB); format: cell-based; details: Homo sapiens, one dose 10 µM, read-out: Growth inhibition percentage (GI%)
[25] = system: MOLT-4; assay: NCI antitumor screen (SRB); format: cell-based; details: Homo sapiens, one dose 10 µM, read-out: Growth inhibition percentage (GI%)
[26] = system: SW-620; assay: NCI antitumor screen (SRB); format: cell-based; details: Homo sapiens, one dose 10 µM, read-out: Growth inhibition percentage (GI%)
[27] = system: TK-10; assay: NCI antitumor screen (SRB); format: cell-based; details: Homo sapiens, one dose 10 µM, read-out: Growth inhibition percentage (GI%)
[28] = system: KM12; assay: NCI antitumor screen (SRB); format: cell-based; details: Homo sapiens, one dose 10 µM, read-out: Growth inhibition percentage (GI%)
[29] = system: SF-539; assay: NCI antitumor screen (SRB); format: cell-based; details: Homo sapiens, one dose 10 µM, read-out: Growth inhibition percentage (GI%)
[30] = system: A498; assay: NCI antitumor screen (SRB); format: cell-based; details: Homo sapiens, one dose 10 µM, read-out: Growth inhibition percentage (GI%)
[31] = system: MDA-MB-231/ATCC; assay: NCI antitumor screen (SRB); format: cell-based; details: Homo sapiens, one dose 10 µM, read-out: Growth inhibition percentage (GI%)
[32] = system: OVCAR-4; assay: NCI antitumor screen (SRB); format: cell-based; details: Homo sapiens, one dose 10 µM, read-out: Growth inhibition percentage (GI%)
[33] = system: EKVX; assay: NCI antitumor screen (SRB); format: cell-based; details: Homo sapiens, one dose 10 µM, read-out: Growth inhibition percentage (GI%)
[34] = system: SK-MEL-2; assay: NCI antitumor screen (SRB); format: cell-based; details: Homo sapiens
[35] = system: CCRF-CEM; assay: NCI antitumor screen (SRB); format: cell-based; details: Homo sapiens, one dose 10 µM, read-out: Growth inhibition percentage (GI%)
[36] = system: HL60 cells; assay: Annexin V-FITC/PI apoptosis assay; format: cell-based, human; details: HL60, 10 µM, 24 h
Experimental: Apoptosis induction is the most important mechanism by which major chemotherapeutics kill cancer cells. Apoptosis causes cellular changes whereby the translocation of phosphatidylserine (PS) occurs through the plasma membrane from the inside to the outside. Annexin-V can bind to PS, which can be used as a sensitive probe for PS on the outer side of the plasma membrane. […] The AV/PI staining of HL60 cells was performed at a mixed molar concentration of 10 µM with compounds 6, 9, 16, and 20 for 24 h. Figure 4 and Table 5 show the results of treating HL60 cells with compounds 6, 9, 16, and 20 for 24 h.
According to our previous report, apoptosis induction was performed using the Leukaemia HL-60 cell line and well-established Annexin 5-FITC/PI detection kit. The cell line samples were analysed using FACSCalibur flow cytometer[40]^,[72]. […]
[(Ti-Tz)/Tz)] x 100 for concentration of which Ti ≤ Tz.
The induction of apoptosis was performed according to our previous report using Leukemia HL-
60 cell line and well-established Annexin 5-FITC/PI detection kit. The cell line samples were
analyzed using a FACSCalibur flow cytometer. […]

[37] = system: SK-MEL-28; assay: NCI antitumor screen (SRB); format: cell-based, human; details: Homo sapiens; SK-MEL-28; one dose 10 µM; read-out: Growth inhibition percentage (GI%)

SMILES | GI50 [2] [µM] | TGI (subpanel average) [2] [µM] | GI50 [5] [µM] | CC50 [5] [µM] | TGI (subpanel average) [5] [µM] | inhibition at 10 µM [16] [%] | inhibition at 10 µM [17] [%] | inhibition at 10 µM [18] [%] | inhibition at 10 µM [19] [%] | inhibition at 10 µM [20] [%] | inhibition at 10 µM [21] [%] | inhibition at 10 µM [22] [%] | inhibition at 10 µM [23] [%] | inhibition at 10 µM [24] [%] | inhibition at 10 µM [25] [%] | inhibition at 10 µM [26] [%] | inhibition at 10 µM [27] [%] | inhibition at 10 µM [28] [%] | inhibition at 10 µM [29] [%] | inhibition at 10 µM [30] [%] | other results
Cc1ccc(-c2cc(C(F)(F)F)nn2-c2ccc(S(N)(=O)=O)cc2)cc1 [Celecoxib, celecoxib] | 17.5 | 34.89 | 25.1 | 67.1 | 41.93 |  |  |  |  |  |  |  |  |  |  |  |  |  |  |  | GI50 [1]: 15.8 µM; GI50 [3]: 19.9 µM; GI50 [4]: 15.8 µM; GI50 [6]: 19.9 µM; GI50 [7]: 15.8 µM; GI50 [8]: 15.8 µM; GI50 [9]: 63.1 µM; GI50 [10]: 19.9 µM; GI50 [11]: 19.9 µM; GI50 [12]: 15.8 µM; GI50 [13]: 19.9 µM; GI50 [14]: 15.8 µM; GI50 [15]: 19.9 µM
O=c1[nH]cc(F)c(=O)[nH]1 [Compound 5-Fu, 5-fluorouracil, reference compound] | 6.87 | 68.01 | 13.6 | > 100 | 80.45 | 65.7 | 82.2 | 41 | 58.6 | 60.7 | 73.5 | 60.3 | > 100 | 46 | 56.9 | 49.9 | 33.1 | 59.3 | > 100 | > 100 | CC50 ([2]; read-out: LC50 (subpanel average), reference drugs, ref https://dtp.cancer.gov/dtpstandard/dwindex/index.jsp): > 100 µM; inhibition at 10 µM [31]: 21.9%; inhibition at 10 µM [32]: 40.6%; inhibition at 10 µM [33]: 41.6%; inhibition at 10 µM ([34]; SK-MEL-2, one dose 10 µM, read-out: Growth inhibition percentage (GI%)): < 10%; inhibition at 10 µM [35]: 42.9%
CS(=O)(=O)c1ccc(C(=O)NN=Cc2cccc3ccccc23)cc1 [Compound 6, 4-(Methylsulfonyl)-N'-(naphthalen-1-ylmethylene)benzohydrazide] |  |  |  |  |  | < 10 | 38.2 | 14.3 | 12.3 | < 10 | 50.2 | 38.4 | 14.9 | 12.6 | 53.2 | 63.8 | 14.9 | 49.2 | 10.7 | 30.9 | Apoptosis, early [36]: 3.52%; Apoptosis, late [36]: 7.64%; Apoptosis, total (annexin V-FITC positive cells) [36]: 12.57%; Necrosis [36]: 1.41%; inhibition at 10 µM [37]: 10.6%; inhibition at 10 µM [31]: < 10%; inhibition at 10 µM [32]: < 10%; inhibition at 10 µM [33]: 12.6%; inhibition at 10 µM ([34]; SK-MEL-2, read-out: Growth inhibition percentage (GI%)): 52.3%; inhibition at 10 µM [35]: 22.4%
